pIC50: −log10 of the molar value. Structures can show the parent of a compound that is named as a salt.
What was measured:
[1] = system: OCI-LY10; test: Anti-proliferative effect in lymphoma cell line OCI-LY10 (CellTiter-Glo); assay type: cell-based; conditions: Homo sapiens, OCI-Ly10, 120 h; incubate with the compound for 5 days
Experimental: Experiment object: In this experiment, the inhibitory effects of the test compounds on cell proliferation in the diffuse large B-cell lymphoma cell lines OCI-LY10 and DOHH2, and the mantle cell lymphoma cell line Mino were tested.
The tumor cell lines were cultured in an incubator at 37° C. and 5% CO2 under the above-mentioned culture conditions. The cells were passaged regularly, and cells in the logarithmic growth phase were taken for plating.
(3). 90 μL of cell suspension was added to each well of the culture plate as shown in the table above, and cell-free culture solution was added to the blank control well.
(4). The culture plates were incubated overnight at 37° C., 5% CO2, and 100% relative humidity in an incubator.
A 400× compound working solution was prepared. The compound was gradually diluted with DMSO from the highest concentration to the lowest concentration. The compound was freshly formulated when use every time.
(1). Formulation of 10× compound working solution: 76 μL of cell culture solution was added to a 96-well plate with a V-shaped bottom, and 4 μL of the compound from a 200× compound solution plate was pipetted and added to the cell culture solution in the 96-well plate. 4 μL of DMSO was added to the vehicle control and blank control. After adding the compound or DMSO, a multi-channel pipette was used for mixing well. 78 μL of cell culture solution was added to a 96-well plate with a V-shaped bottom, and 2 μL of the compound from the 400× compound storage solution was pipetted and added to the cell culture solution in the 96-well plate. 2 μL of DMSO was added to the vehicle control and blank control. After adding the compound or DMSO, a multi-channel pipette was used for mixing well.
(2). Dosing: 10 μL of the 10× compound working solution was taken and added to the cell culture plate. 10 μL mixture of DMSO and cell culture solution was added to the vehicle control and blank control.
(3). The 96-well cell plates were placed back into the incubator to culture OCI-LY10 (5 times dilution, incubate with the compound for 5 days), DOHH2 (3 times dilution, incubate with the compound for 4 days), Mino (3 times dilution, incubate with the compound for 4 days).
The following steps followed the instructions of Promega CellTiter-Glo Luminescence Cell Viability Detection Kit (Promega-G7573).
(6). 50 μL (equal to half the volume of cell culture solution in each well) of CellTiter-Glo working solution was added into each well. The cell plates were wrapped with aluminum foil to protect the cell plate from light.
(9). The luminous signal was detected on the 2104 EnVision plate reader.
The following formula was used to calculate the inhibition rate (IR) of the test compound: IR (%)=(RLU of vehicle control−RLU of compound)/(RLU vehicle control−RLU blank control)*100%. […]

[2] = system: DOHH2; test: Anti-proliferative effect in lymphoma cell line DOHH2 (CellTiter-Glo); assay type: cell-based; conditions: Homo sapiens, DOHH-2, 96 h; incubate with the compound for 4 days
Experimental: (§1) Experiment object: In this experiment, the inhibitory effects of the test compounds on cell proliferation in the diffuse large B-cell lymphoma cell lines OCI-LY10 and DOHH2, and the mantle cell lymphoma cell line Mino were tested. The tumor cell lines were cultured in an incubator at 37° C. and 5% CO2 under the above-mentioned culture conditions. The cells were passaged regularly, and cells in the logarithmic growth phase were taken for plating. (3). 90 μL of cell suspension was added to each well of the culture plate as shown in the table above, and cell-free culture solution was added to the blank control well. (4). The culture plates were incubated overnight at 37° C., 5% CO2, and 100% relative humidity in an incubator. A 400× compound working solution was prepared. The compound was gradually diluted with DMSO from the highest concentration to the lowest concentration. […] The following steps followed the instructions of Promega CellTiter-Glo Luminescence Cell Viability Detection Kit (Promega-G7573). […] The luminous signal was detected on the 2104 EnVision plate reader. […] The inhibition rate of different concentrations of the compound was calculated in Excel, and then GraphPad Prism software was used to draw the inhibition curve and calculate the relevant parameters, including the minimum inhibition rate, the maximum inhibition rate and IC50.

[3] = system: Mino; test: Anti-proliferative effect in lymphoma cell line Mino (CellTiter-Glo); assay type: cell-based; conditions: Homo sapiens, 96 h, incubate with the compound for 4 days
Experimental: as §1

[4] = system: human lymphoma OCI-LY10 cells; test: In vivo pharmacodynamic study in subcutaneous xenograft tumor CB-17 SCID model of human lymphoma OCI-LY10 cells; parameters: species or system CB-17 SCID mouse
Experimental: Cells culture: Human lymphoma OCI-LY10 cells (National Cancer Institute) were cultured in a monolayer method in vitro (culture conditions: RPMI-1640 medium with 10% fetal bovine serum, 100 U/mL penicillin and 100 μg/mL streptomycin; 37° C., 5% CO2 incubator). Pancreatin-EDTA was used twice a week for conventional digestion and passage. When a cell saturation of 80%-90% and the required cell number were achieved, the cells were collected, counted and seeded. Animal: CB-17 SCID mouse, female, 6-8 weeks old, weighing 18-22 grams. 0.2 mL (10×10^6 cells) of OCI-LY10 cells (with matrigel in a volume ratio of 1:1) were subcutaneously inoculated on the right back of each mouse. The grouping and administration were started when the average tumor volume reached about 139 mm^3. One dosing cycle was seven days, and the compound was administered once a day with an interval of 24 hours. The test compound was administered orally for a total of four cycles. The dose of the test compound WX001 was 60 mg/kg. The tumor volume was measured twice a week with a two-dimensional caliper, expressed in cubic millimeters, and calculated by the following formula: V=0.5a×b^2, in which a and b were the long diameter and short diameter of the tumor, respectively. The anti-tumor efficacy was determined by dividing the average increase of tumor volume of animals treated with the compound by that of untreated animals. TGI: Tumor Growth Inhibition. TGI (%)=[1−(average tumor volume at the end of administration in a treatment group−average tumor volume at the beginning of administration in this treatment group)/(average tumor volume at the end of administration in the solvent control group−average tumor volume at the beginning of administration in the solvent control group)]×100%.

[5] = Pharmacokinetic properties of test compound in mice (oral); assay type: in vivo, C57BL male mice; conditions: mouse; for oral plasma systemic exposure (AUC0-inf), in words / pharmacokinetic properties in rodent mice, in words: oral
Source text: In this study, C57BL male mice were selected as the test animals, and the LC/MS/MS method was used to quantitatively determine the drug concentration in the plasma of the test compound and the reference compound administered orally to evaluate the pharmacokinetic profile of the test compound in mice.
[…] (C57) mice (male, 20-30 g, 7-10 weeks old, from Beijing Vital River or Shanghai SLAC).
A clear solution or suspension of the test compound was administrated to C57 mice (fasted overnight) by oral gavage. Blood was collected from jugular vein at pre-dose and 0.5, 1, 2, 4, 6, 8, 24 hours post-dose, the collected blood samples were placed in an anticoagulant tube (Jiangsu Kangjian Medical Co., Ltd.) supplemented with EDTA-K2, and the mixture was vortexed and centrifuged at 13000 rpm for 10 minutes. The LC-MS/MS method was used to determine the plasma concentration, and the relevant pharmacokinetic parameters were calculated using the non-compartmental model linear logarithmic trapezoidal method by WinNonlin™ Version 6.3 (Pharsight, Mountain View, Calif.).

[6] = 60 mg/kg oral once a day, Day 27

pIC50 [1]	oral plasma systemic exposure (AUC0-inf), in words [5]	pharmacokinetic properties in rodent mice, in words [5]	Area under the concentration-time curve (0-inf) ([5]; oral 10 mg/kg, plasma)	Compound	also measured
7.55	–	–	–	O=C1CCC(c2coc3cc4ccccc4cc23)C(=O)N1 (stereo not drawn) [WX001]	pIC50 [2]: 7.20; pIC50 [3]: 7.14; Tumor volume (Day 0) ([4]; 60 mg/kg oral once a day, Day 0, start of administration): 139 mm^3; TGI (Day 27) [4, 6]: 105.5%; Tumor volume (Day 27) [4, 6]: 87 mm^3; tumor-shrinking effect, in words ([4]; human lymphoma OCI-LY10 model): significant tumor-shrinking effect
–	higher	better pharmacokinetic properties	7.42 µM·h	CN(C)CCOc1ccc2cc3occ(C4CCC(=O)NC4=O)c3cc2c1 (stereo not drawn) [Hydrochloride salt of WX022]	–
7.08	–	–	–	O=C1CCC(c2coc3cc4c(cc23)OCCN4)C(=O)N1 (stereo not drawn) [WX003]	–
–	higher	better pharmacokinetic properties	13.29 µM·h	O=C1CCC(c2coc3cc4ccc(OCCN5CCOCC5)cc4cc23)C(=O)N1 (stereo not drawn) [WX015]	Peak concentration ([5]; oral 10 mg/kg, plasma): 5.14 µM; Time to peak ([5]; oral 10 mg/kg, plasma): 0.50 h
7.07	–	–	–	O=C1CCC(c2coc3cc4c(cc23)OCO4)C(=O)N1 (stereo not drawn) [WX002]	–
8.22	–	–	–	Cc1nc2cc3occ(C4CCC(=O)NC4=O)c3cc2o1 (stereo not drawn) [WX005]	–
